These results are taken from US11396502B2, “Substituted heterocyclic derivatives as PI3K inhibitors” (Incyte Corporation, priority 2018, dated 2022).

Each structure is given as a SMILES string. Counter-ions that a name gives are not always drawn. Like-named read-outs stand apart in the source and are kept apart here. Where only a bound is given, the exact number is not on record here.

The target of experiment [1] is PI3Kγ (p110γ) (Homo sapiens (Human), UniProt P48736). The experiment is described as follows: PI3K-γ scintillation proximity assay. Type of experiment: biochemical. The conditions noted are these: recombinant human PI3Kγ 13 nM, 20 μM PIP2, 2 μM ATP, 120 min, room temperature. An excerpt: Example B. PI3K-γ Scintillation Proximity Assay Materials: [γ-^33P]ATP (10 mCi/mL) and Wheat Germ Agglutinin (WGA) YSi SPA Scintillation Beads was purchased from Perkin Elmer (Waltham, Mass.). Lipid kinase substrate, D-myo-Phosphatidylinositol 4,5-bisphosphate (PtdIns(4,5)P2)D (+)-sn-1,2-di-O-octanoylglyceryl, 3-O-phospho linked (PIP2), CAS 204858-53-7, was purchased from Echelon Biosciences (Salt Lake City, Utah). PI3Kγ (p110γ) Recombinant Human Protein was purchased from Life technology (Grand Island, N.Y.). ATP, MgCl2, DTT, EDTA, MOPS and CHAPS were purchased from Sigma Aldrich (St. Louis, Mo.). The kinase reaction was conducted in polystyrene 384-well Greiner Bio-one white plate from Thermo Fisher Scientific in a final volume of 25 μL. Inhibitors were first diluted serially in DMSO and added to the plate wells before the addition of other reaction components. The final concentration of DMSO in the assay was 2%. The PI3Kγ assay was carried out at room temperature in 20 mM MOPS, pH 6.7, 10 mM MgCl2, 5 mM DTT and CHAPS 0.03%. Reactions were initiated by the addition of ATP, the final reaction mixture consisted of 20 μM PIP2, 2 μM ATP, 0.5 μCi [γ-^33P] ATP, 13 nM PI3Kγ. Reactions were incubated for 120 min and terminated by the addition of 40 μL SPA beads suspended in quench buffer: 163 mM potassium phosphate pH 7.8, 20% glycerol, 25 mM EDTA. The final concentration of SPA beads is 1.0 mg/mL. After the plate sealing, plates were shaken overnight at room temperature and centrifuged at 1500 rpm for 10 min, the radioactivity of the product was determined by scintillation counting on Topcount (Perkin-Elmer). IC50 determination was performed by fitting the curve of percent of the solvent control activity versus the log of the inhibitor concentration using the GraphPad Prism 6.0 software.
In general terms: In a scintillation proximity assay essentially only radioactivity close to the scintillant gives light.

Experiment [2] deals with PI3Kδ (p110δ/p85α) (Homo sapiens (Human), UniProt O00329). Kind of experiment: PI3Kδ scintillation proximity assay. Type of experiment: biochemical. The settings on record: recombinant human PI3Kδ 3.4 nM, 20 μM PIP2, 2 μM ATP, 120 min, room temperature. The source says: Example C. PI3Kδ Scintillation Proximity Assay Materials: [γ-^33P]ATP (10 mCi/mL) and Wheat Germ Agglutinin (WGA) YSi SPA Scintillation Beads was purchased from Perkin Elmer (Waltham, Mass.). Lipid kinase substrate, D-myo-Phosphatidylinositol 4,5-bisphosphate (PtdIns(4,5)P2)D (+)-sn-1,2-di-O-octanoylglyceryl, 3-O-phospho linked (PIP2), CAS 204858-53-7, was purchased from Echelon Biosciences (Salt Lake City, Utah). PI3Kδ (p110δ/p85α) Recombinant Human Protein was purchased from Eurofins (St Charles, Mo.). ATP, MgCl2, DTT, EDTA, MOPS and CHAPS were purchased from Sigma Aldrich (St. Louis, Mo.). The kinase reaction was conducted in polystyrene 384-well Greiner Bio-one white plate from Thermo Fisher Scientific in a final volume of 25 μL. Inhibitors were first diluted serially in DMSO and added to the plate wells before the addition of other reaction components. The final concentration of DMSO in the assay was 2%. The PI3Kδ assay was carried out at room temperature in 20 mM MOPS, pH 6.7, 10 mM MgCl2, 5 mM DTT and CHAPS 0.03%. Reactions were initiated by the addition of ATP, the final reaction mixture consisted of 20 μM PIP2, 2 μM ATP, 0.5 μCi [γ-^33P] ATP, 3.4 nM PI3Kδ. Reactions were incubated for 120 min and terminated by the addition of 40 μL SPA beads suspended in quench buffer: 163 mM potassium phosphate pH 7.8, 20% glycerol, 25 mM EDTA. The final concentration of SPA beads is 1.0 mg/mL. After the plate sealing, plates were shaken overnight at room temperature and centrifuged at 1500 rpm for 10 min, the radioactivity of the product was determined by scintillation counting on Topcount (PerkinElmer). IC50 determination was performed by fitting the curve of percent of the solvent control activity versus the log of the inhibitor concentration using the GraphPad Prism 6.0 software.

Experiment [3] deals with Phosphorylated Ribosomal Protein S6 (RPS6) in THP-1 cells. Kind of experiment: THP-1 RPS6 ELISA assay. The experiment is classed as cell-based, Human. The conditions noted are these: 2 hours compound, 10 nM MCP-1 for 15 minutes, Phospho-RPS6 ELISA, read-out: PI3Kγ_THP1_RPS6_ELISA IC50. As for the experimental part: Example A. THP-1 RPS6 ELISA Assay
To measure the Phosphorylated Ribosomal Protein S6 (RPS6) in cell lysates, THP-1 cells (Human Acute Monocytic Leukemia) are purchased from ATCC (Manassas, Va.) and maintained in RPMI with 10% FBS (Gibco/Life Technologies, Carlsbad, Calif.). For the assay, THP-1 cells are serum starved overnight in RPMI, then plated in RPMI (2×10^5 cells/well in 90 μL) into 96-well flat-bottom tissue culture treated plates (Corning, Corning, N.Y.), in the presence or absence of a concentration range of test compounds. Covered plates are incubated for 2 hours at 37° C., 5% CO2 then treated with or without 10 nM MCP-1 (MYBioSource, San Diego, Calif.) for 15 minutes at 37° C., 5% CO2. Plates are centrifuged at 1600 RPM and supernatants are removed. Cells are lysed in Lysis Buffer (Cell Signaling, Danvers, Mass.) with Protease Inhibitor (Calbiochem/EMD, Germany), PMSF (Sigma, St Louis Mo.), HALTS (Thermo Fisher, Rockford, Ill.) for 30 min on wet ice. Cell lysates are frozen at −80° C. before testing. The lysates are tested in the Human/Mouse/Rat Phospho-RPS6 ELISA (R&D Systems, Inc. Minn, Minn.). The plate is measured using a microplate reader (SpectraMax M5—Molecular Devices, LLC Sunnyvale, Calif.) set to 450 nm with a wavelength correction of 540. IC50 determination is performed by fitting the curve of inhibitor percent inhibition versus the log of the inhibitor concentration using the GraphPad Prism 5.0 software.
(In general: In an ELISA, binding on a coated surface is turned into a signal by an enzyme label.)

[4] abbreviates: Homo sapiens, THP-1, serum starved THP-1 cells.

PI3Kγ (p110γ), sequence (P48736 whole entry): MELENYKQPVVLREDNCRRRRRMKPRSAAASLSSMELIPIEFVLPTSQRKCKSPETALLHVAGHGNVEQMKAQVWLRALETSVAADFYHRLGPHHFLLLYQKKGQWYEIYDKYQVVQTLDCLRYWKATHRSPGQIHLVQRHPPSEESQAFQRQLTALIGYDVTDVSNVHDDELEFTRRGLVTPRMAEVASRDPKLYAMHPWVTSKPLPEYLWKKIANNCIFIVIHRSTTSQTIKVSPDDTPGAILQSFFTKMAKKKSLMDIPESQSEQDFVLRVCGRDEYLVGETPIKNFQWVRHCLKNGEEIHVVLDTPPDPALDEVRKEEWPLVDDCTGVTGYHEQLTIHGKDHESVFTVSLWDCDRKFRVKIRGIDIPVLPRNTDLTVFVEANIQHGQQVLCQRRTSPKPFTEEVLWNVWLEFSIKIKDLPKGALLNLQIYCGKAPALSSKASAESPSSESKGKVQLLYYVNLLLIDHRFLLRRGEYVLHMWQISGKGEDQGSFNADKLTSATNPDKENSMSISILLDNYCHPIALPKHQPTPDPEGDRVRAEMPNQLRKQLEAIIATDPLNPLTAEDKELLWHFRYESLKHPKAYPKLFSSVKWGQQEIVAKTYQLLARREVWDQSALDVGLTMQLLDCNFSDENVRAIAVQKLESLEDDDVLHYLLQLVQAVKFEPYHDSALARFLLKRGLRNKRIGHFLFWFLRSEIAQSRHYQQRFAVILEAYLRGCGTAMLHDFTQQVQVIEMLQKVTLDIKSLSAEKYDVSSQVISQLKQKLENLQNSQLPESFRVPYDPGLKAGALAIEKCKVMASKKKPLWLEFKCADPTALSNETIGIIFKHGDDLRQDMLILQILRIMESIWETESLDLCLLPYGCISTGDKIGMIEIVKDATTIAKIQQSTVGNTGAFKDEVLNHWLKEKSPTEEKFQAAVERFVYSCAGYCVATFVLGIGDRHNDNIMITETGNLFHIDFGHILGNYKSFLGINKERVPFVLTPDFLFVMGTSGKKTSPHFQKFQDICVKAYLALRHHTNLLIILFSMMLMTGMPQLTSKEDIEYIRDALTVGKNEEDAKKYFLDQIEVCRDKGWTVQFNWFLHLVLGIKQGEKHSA
PI3Kδ (p110δ/p85α), sequence (O00329 whole entry): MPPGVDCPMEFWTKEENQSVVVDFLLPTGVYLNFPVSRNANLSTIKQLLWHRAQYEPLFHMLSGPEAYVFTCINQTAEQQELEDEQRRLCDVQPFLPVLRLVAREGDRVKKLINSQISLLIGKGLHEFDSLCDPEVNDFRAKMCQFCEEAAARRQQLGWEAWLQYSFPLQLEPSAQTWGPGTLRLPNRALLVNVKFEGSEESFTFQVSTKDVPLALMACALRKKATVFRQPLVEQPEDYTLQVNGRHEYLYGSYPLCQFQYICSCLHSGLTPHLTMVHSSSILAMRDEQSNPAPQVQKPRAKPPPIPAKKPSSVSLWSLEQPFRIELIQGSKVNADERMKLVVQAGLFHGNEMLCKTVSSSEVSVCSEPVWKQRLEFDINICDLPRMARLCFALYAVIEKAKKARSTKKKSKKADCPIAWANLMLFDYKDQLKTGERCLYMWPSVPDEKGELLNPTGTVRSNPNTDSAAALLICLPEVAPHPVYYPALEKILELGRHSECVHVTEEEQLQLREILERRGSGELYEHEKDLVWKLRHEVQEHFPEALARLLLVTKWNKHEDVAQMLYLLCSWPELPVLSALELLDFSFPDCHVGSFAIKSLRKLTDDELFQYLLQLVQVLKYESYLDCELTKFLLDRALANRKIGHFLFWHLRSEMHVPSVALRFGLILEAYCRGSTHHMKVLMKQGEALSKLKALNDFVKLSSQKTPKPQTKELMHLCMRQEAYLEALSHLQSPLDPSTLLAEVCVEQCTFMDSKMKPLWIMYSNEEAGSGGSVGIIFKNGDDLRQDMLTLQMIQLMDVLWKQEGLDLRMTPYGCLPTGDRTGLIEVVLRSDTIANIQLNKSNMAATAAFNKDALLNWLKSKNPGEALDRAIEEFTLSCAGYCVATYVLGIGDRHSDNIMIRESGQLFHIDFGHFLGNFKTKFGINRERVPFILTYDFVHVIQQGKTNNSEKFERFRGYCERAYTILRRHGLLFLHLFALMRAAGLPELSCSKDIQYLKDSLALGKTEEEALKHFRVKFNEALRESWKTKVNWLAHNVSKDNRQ
PI3Kδ (p110δ/p85α), sequence (P27986 whole entry partner): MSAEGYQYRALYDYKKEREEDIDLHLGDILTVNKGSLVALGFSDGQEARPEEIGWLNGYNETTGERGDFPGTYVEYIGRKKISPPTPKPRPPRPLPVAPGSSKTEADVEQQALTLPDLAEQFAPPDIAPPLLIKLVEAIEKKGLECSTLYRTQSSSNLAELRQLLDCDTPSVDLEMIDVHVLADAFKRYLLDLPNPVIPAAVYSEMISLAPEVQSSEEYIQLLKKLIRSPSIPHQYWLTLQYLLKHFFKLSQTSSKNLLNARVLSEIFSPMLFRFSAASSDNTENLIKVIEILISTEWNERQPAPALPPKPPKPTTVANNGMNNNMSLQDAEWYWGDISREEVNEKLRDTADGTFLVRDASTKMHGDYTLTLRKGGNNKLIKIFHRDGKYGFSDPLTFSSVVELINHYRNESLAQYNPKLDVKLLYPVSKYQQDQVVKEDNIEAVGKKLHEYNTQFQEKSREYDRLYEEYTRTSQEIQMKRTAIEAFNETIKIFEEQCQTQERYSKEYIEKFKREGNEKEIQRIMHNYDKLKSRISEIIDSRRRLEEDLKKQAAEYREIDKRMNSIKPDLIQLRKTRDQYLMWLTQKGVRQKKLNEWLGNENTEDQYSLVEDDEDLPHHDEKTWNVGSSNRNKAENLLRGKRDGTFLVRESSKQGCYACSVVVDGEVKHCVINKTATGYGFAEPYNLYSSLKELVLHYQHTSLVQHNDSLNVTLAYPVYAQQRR

Consider `Cc1[nH]c(-c2cc(-c3cc4c(c(S(C)(=O)=O)c3)C(=O)N([C@@H](C)C3CC3)C4)ccn2)nc1C(=O)N1CC(O)C1` [Example 7e, (S)-2-(1-Cyclopropylethyl)-5-(2-(5-(3-hydroxyazetidine-1-carbonyl)-4-methyl-1H-imidazol-2-yl)pyridin-4-yl)-7-(methylsulfonyl)isoindolin-1-one, trifluoroacetate salt], for which the concentration for half-maximal inhibition (IC50) (usually the concentration that inhibits the measured activity by half) is below 100 nM in experiment [1], 100 to 500 nM in experiment [2] and above 1000 nM in experiment [3] (setting [4]).
Take `CN=S(C)(=O)c1cc(-c2ccnc(-c3nc(C)c(C)[nH]3)c2)cc2c1C(=O)N([C@@H](C)C1CC1)C2` (stereo partly drawn) [Example 23, 2-((S)-1-Cyclopropylethyl)-5-(2-(4,5-dimethyl-1H-imidazol-2-yl)pyridin-4-yl)-7-(N,S-dimethylsulfonimidoyl)isoindolin-1-one]: the IC50 in experiment [1] is below 100 nM; in experiment [2] it was 500 to 2000 nM; in experiment [3] (setting [4]), 100 to 500 nM.
Taken in the same sequence, the figures for `Cc1[nH]c(-c2cc(-c3cc4c(c(S(C)(=O)=O)c3)C(=O)N([C@@H](C)C3CC3)C4)ccn2)nc1C(=O)NC12CCC(C#N)(C1)C2` [Example 7h, (S)-N-(4-Cyanobicyclo[2.1.1]hexan-1-yl)-2-(4-(2-(1-cyclopropylethyl)-7-(methylsulfonyl)-1-oxoisoindolin-5-yl)pyridin-2-yl)-4-methyl-1H-imidazole-5-carboxamide, trifluoroacetate salt] were below 100 nM, below 100 nM and 100 to 500 nM.
For `Cc1nc(-c2cc(-c3cc(Cl)c4c(c3)CN([C@@H](C)C3CC3)C4=O)ccn2)[nH]c1C` [Example 1, (S)-7-Chloro-2-(1-cyclopropylethyl)-5-(2-(4,5-dimethyl-1H-imidazol-2-yl)pyridin-4-yl)isoindolin-1-one] the same measures were below 100 nM, 100 to 500 nM and 500 to 1000 nM.
Taken in the same sequence, the figures for `Cc1[nH]c(-c2cc(-c3cc4c(c(S(C)(=O)=O)c3)C(=O)N([C@@H](C)C3CC3)C4)ccn2)nc1C(=O)NC1CCC1` [Example 7k, (S)-N-Cyclobutyl-2-(4-(2-(1-cyclopropylethyl)-7-(methylsulfonyl)-1-oxoisoindolin-5-yl)pyridin-2-yl)-4-methyl-1H-imidazole-5-carboxamide, trifluoroacetate salt] were below 100 nM, 100 to 500 nM and 100 to 500 nM.
`CN=S(C)(=O)c1cc(-c2ccnc(-c3nc(C)c(C)[nH]3)c2)cc2c1C(=O)N([C@@H](C)C1CC1)C2` (single isomer, unassigned) [Example 25]: the values for the half-inhibitory concentration (IC50) in experiment [1], in experiment [2] and in experiment [3] (setting [4]) were below 100 nM, 500 to 2000 nM and 500 to 1000 nM, respectively.
For `Cc1[nH]c(-c2cc(-c3cc4c(c(S(C)(=O)=O)c3)C(=O)N([C@@H](C)C3CC3)C4)ccn2)nc1C(=O)NC1CN(C)C1` [Example 7m, (S)-2-(4-(2-(1-Cyclopropylethyl)-7-(methylsulfonyl)-1-oxoisoindolin-5-yl)pyridin-2-yl)-4-methyl-N-(1-methylazetidin-3-yl)-1H-imidazole-5-carboxamide, trifluoroacetate salt] the same measures were below 100 nM, 500 to 2000 nM and 500 to 1000 nM.
With `Cc1nc(-c2cc(-c3cc4c(c(S(C)(=O)=O)c3)C(=O)N([C@@H](C)C3CC3)C4)ccn2)[nH]c1C(=O)NC(C)C(F)(F)F` (single isomer, unassigned) [Example 7g], the half-maximal inhibitory concentration (IC50) in experiment [1] was below 100 nM; in experiment [2] it was 100 to 500 nM; in experiment [3] (serum starved THP-1 cells), above 1000 nM.
As for `Cc1nc(-c2cc(-c3cc4c(c(S(C)(=N)=O)c3)C(=O)N([C@@H](C)C3CC3)C4)ccn2)[nH]c1C` (stereo partly drawn) [Example 20, 2-((S)-1-Cyclopropylethyl)-5-(2-(4,5-dimethyl-1H-imidazol-2-yl)pyridin-4-yl)-7-(S-methylsulfonimidoyl)isoindolin-1-one, Trifluoroacetate Salt], the 50% inhibitory concentration (IC50) in experiment [1] is below 100 nM; in experiment [2], above 2000 nM; in experiment [3] (serum starved THP-1 cells, Trifluoroacetate Salt) it was 100 to 500 nM.
Consider `Cc1[nH]c(-c2cc(-c3cc4c(c(S(C)(=O)=O)c3)C(=O)N([C@@H](C)C3CC3)C4)ccn2)nc1C(=O)N1CC2(COC2)C1` [Example 7p, (S)-2-(1-Cyclopropylethyl)-5-(2-(4-methyl-5-(2-oxa-6-azaspiro[3.3]heptane-6-carbonyl)-1H-imidazol-2-yl)pyridin-4-yl)-7-(methylsulfonyl)isoindolin-1-one, trifluoroacetate salt], for which the IC50 was below 100 nM in experiment [1], 500 to 2000 nM in experiment [2] and 100 to 500 nM in experiment [3] (setting [4]).
For `CNC(=O)c1nc(-c2cc(-c3cc4c(c(S(C)(=O)=O)c3)C(=O)N([C@@H](C)C3CC3)C4)ccn2)[nH]c1C` [Example 7, (S)-2-(4-(2-(1-Cyclopropylethyl)-7-(methylsulfonyl)-1-oxoisoindolin-5-yl)pyridin-2-yl)-N,4-dimethyl-1H-imidazole-5-carboxamide, trifluoroacetate salt] the same measures were below 100 nM, 500 to 2000 nM and 100 to 500 nM.
Taken in the same sequence, the figures for `Cc1[nH]c(-c2cc(-c3cc4c(c(S(C)(=O)=O)c3)C(=O)N([C@@H](C)C3CC3)C4)ccn2)nc1C(=O)NC1CC(O)C1` (mixture of isomers) [Example 7f, (S)-2-(4-(2-(1-Cyclopropylethyl)-7-(methylsulfonyl)-1-oxoisoindolin-5-yl)pyridin-2-yl)-N-(3-hydroxycyclobutyl)-4-methyl-1H-imidazole-5-carboxamide, trifluoroacetate salt (mixture of two diastereomers)] were below 100 nM, 100 to 500 nM and above 1000 nM.
